Results as given in the NIST ThermoML archive (doi:10.1021/je050348f).

Test: osmotic coefficient (dimensionless); mn = molality of the nth substance listed, in mol/kg
Settings: 101 kPa, Liquid, Knauer vapor pressure osmometer

Cc1ccc(S(=O)(=O)[O-])cc1.[Na+] [sodium p-toluenesulfonate] + O
osmotic coefficient
Settings | 313.15 K | 318.15 K | 323.15 K
m1 = 0.02 | 0.985 | 0.98 | 0.968
m1 = 0.04 | 0.964 | 0.96 | 0.956
m1 = 0.06 | 0.944 | 0.941 | 0.939
m1 = 0.08 | 0.933 | 0.931 | 0.928
m1 = 0.1 | 0.921 | 0.92 | 0.916
m1 = 0.12 | 0.911 | 0.908 | 0.904
m1 = 0.14 | 0.902 | 0.898 | 0.894
m1 = 0.15 | 0.897 | 0.895 | 0.892
m1 = 0.16 | 0.891 | 0.888 | 0.885
m1 = 0.17 | 0.888 | 0.887 | 0.882
m1 = 0.2 | 0.867 | 0.864 | 0.86
m1 = 0.22 | 0.876 | 0.873 | 0.869
m1 = 0.3 | 0.839 | 0.836 | 0.831
m1 = 0.35 | 0.806 | 0.803 | 0.8
m1 = 0.4 | 0.771 | 0.76 | 0.755
m1 = 0.45 | 0.76 | 0.756 | 0.75
m1 = 0.5 | 0.75 | 0.743 | 0.739
m1 = 0.6 | 0.72 | 0.711 | 0.696
m1 = 0.7 | 0.71 | 0.685 | 0.676
m1 = 0.8 | 0.701 | 0.683 | 0.674
